Source: PubChem BioAssay (NCI)
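GI50: concentration for 50% inhibition of growth. At the TGI there is no net growth.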

Legend:
Experiment in all cases: growth of human tumour cells (NCI), 384-well format
DU-145 prostate = tested on: DU-145 prostate
IGROV1 ovarian = tested on: IGROV1 ovarian
MOLT-4 leukemia = tested on: MOLT-4 leukemia
SK-OV-3 ovarian = tested on: SK-OV-3 ovarian
PC-3 prostate = tested on: PC-3 prostate
SK-MEL-5 melanoma = tested on: SK-MEL-5 melanoma
HOP-92 NSCLC = tested on: HOP-92 NSCLC
MCF7 breast = tested on: MCF7 breast
HOP-62 NSCLC = tested on: HOP-62 NSCLC
CAKI-1 renal = tested on: CAKI-1 renal
MDA-MB-231 breast = tested on: MDA-MB-231 breast
UACC-257 melanoma = tested on: UACC-257 melanoma
SK-MEL-28 melanoma = tested on: SK-MEL-28 melanoma
OVCAR-4 ovarian = tested on: OVCAR-4 ovarian
NCI-H226 lung = tested on: NCI-H226 lung
786-0 renal = tested on: 786-0 renal
NCI/ADR-RES ovarian = tested on: NCI/ADR-RES ovarian
OVCAR-5 ovarian = tested on: OVCAR-5 ovarian
M14 melanoma = tested on: M14 melanoma
ACHN renal = tested on: ACHN renal
MDA-MB-435 melanoma = tested on: MDA-MB-435 melanoma
SW-620 colon = tested on: SW-620 colon
KM12 colon = tested on: KM12 colon
CCRF-CEM leukemia = tested on: CCRF-CEM leukemia
SF-295 CNS = tested on: SF-295 CNS
UACC-62 melanoma = tested on: UACC-62 melanoma
HCC-2998 colon = tested on: HCC-2998 colon
TK-10 renal = tested on: TK-10 renal
RPMI-8226 leukemia = tested on: RPMI-8226 leukemia
OVCAR-8 ovarian = tested on: OVCAR-8 ovarian
OVCAR-3 ovarian = tested on: OVCAR-3 ovarian
SNB-75 CNS = tested on: SNB-75 CNS
SR leukemia = tested on: SR leukemia
T-47D breast = tested on: T-47D breast
NCI-H522 lung = tested on: NCI-H522 lung
HT29 colon = tested on: HT29 colon
COLO 205 colon = tested on: COLO 205 colon
LOX IMVI melanoma = tested on: LOX IMVI melanoma
MALME-3M melanoma = tested on: MALME-3M melanoma
HCT-15 colon = tested on: HCT-15 colon
SF-539 CNS = tested on: SF-539 CNS
NCI-H23 lung = tested on: NCI-H23 lung
SN12C renal = tested on: SN12C renal
A498 renal = tested on: A498 renal
HS 578T breast = tested on: HS 578T breast
NCI-H322M lung = tested on: NCI-H322M lung
HL-60(TB) leukemia = tested on: HL-60(TB) leukemia
A549 NSCLC = tested on: A549 NSCLC
UO-31 renal = tested on: UO-31 renal
EKVX NSCLC = tested on: EKVX NSCLC
NCI-H460 NSCLC = tested on: NCI-H460 NSCLC
MDA-MB-468 breast = tested on: MDA-MB-468 breast
BT-549 breast = tested on: BT-549 breast
SF-268 CNS = tested on: SF-268 CNS
K-562 leukemia = tested on: K-562 leukemia
SNB-19 CNS = tested on: SNB-19 CNS
RXF 393 renal = tested on: RXF 393 renal

`CCN(CC)CCCC(C)Nc1c2ccc(Cl)cc2nc2ccc(OC)cc12` (centres undefined) gave a GI50 (DU-145 prostate) of 1720 nM, a TGI (DU-145 prostate) of 3530 nM and a GI50 (IGROV1 ovarian) of 1890 nM. It also gave a TGI (IGROV1 ovarian) of 3720 nM, a GI50 (MOLT-4 leukemia) of 212 nM and a TGI (MOLT-4 leukemia) of 357 nM. For the same compound, the GI50 (SK-OV-3 ovarian) was 1200 nM, the TGI (SK-OV-3 ovarian) was 2700 nM and the GI50 (PC-3 prostate) was 1780 nM. The TGI (PC-3 prostate) was 3380 nM, the GI50 (SK-MEL-5 melanoma) was 1960 nM and the TGI (SK-MEL-5 melanoma) was 3380 nM. The GI50 (HOP-92 NSCLC) was 520 nM, the TGI (HOP-92 NSCLC) was 1820 nM and the GI50 (MCF7 breast) was 1410 nM. It also gave a TGI (MCF7 breast) of 3200 nM, a GI50 (HOP-62 NSCLC) of 1100 nM and a TGI (HOP-62 NSCLC) of 2440 nM. It also gave a GI50 (CAKI-1 renal) of 1370 nM, a TGI (CAKI-1 renal) of 2740 nM and a GI50 (MDA-MB-231 breast) of 1180 nM. It also gave a TGI (MDA-MB-231 breast) of 2560 nM, a GI50 (UACC-257 melanoma) of 1890 nM and a TGI (UACC-257 melanoma) of 3300 nM. It also gave a GI50 (SK-MEL-28 melanoma) of 1870 nM, a TGI (SK-MEL-28 melanoma) of 3270 nM and a GI50 (OVCAR-4 ovarian) of 1550 nM. It also gave a TGI (OVCAR-4 ovarian) of 2920 nM, a GI50 (NCI-H226 lung) of 1330 nM and a TGI (NCI-H226 lung) of 2800 nM. For the same compound, the GI50 ([…]-0 renal) was 1180 nM, the TGI (786-0 renal) was 2440 nM and the GI50 (NCI/ADR-RES ovarian) was 1550 nM. For the same compound, the TGI (NCI/ADR-RES ovarian) was 2940 nM, the GI50 (OVCAR-5 ovarian) was 1920 nM and the TGI (OVCAR-5 ovarian) was 4160 nM. The GI50 (M14 melanoma) was 1790 nM, the TGI (M14 melanoma) was 3180 nM and the GI50 (ACHN renal) was 1040 nM. The TGI (ACHN renal) was 2440 nM, the GI50 (MDA-MB-435 melanoma) was 1750 nM and the TGI (MDA-MB-435 melanoma) was 3140 nM. The GI50 (SW-620 colon) was 1390 nM, the TGI (SW-620 colon) was 2940 nM and the GI50 (KM12 colon) was 1370 nM. The TGI (KM12 colon) was 3130 nM, the GI50 (CCRF-CEM leukemia) was 609 nM and the TGI (CCRF-CEM leukemia) was 1660 nM. It also gave a GI50 (SF-295 CNS) of 1740 nM, a TGI (SF-295 CNS) of 3140 nM and a GI50 (UACC-62 melanoma) of 1690 nM. For the same compound, the TGI (UACC-62 melanoma) was 3060 nM, the GI50 (HCC-2998 colon) was 985 nM and the TGI (HCC-2998 colon) was 2150 nM. For the same compound, the GI50 (TK-10 renal) was 1950 nM, the TGI (TK-10 renal) was 3690 nM and the GI50 (RPMI-8226 leukemia) was 1490 nM. For the same compound, the TGI (RPMI-8226 leukemia) was 2810 nM, the GI50 (OVCAR-8 ovarian) was 1070 nM and the TGI (OVCAR-8 ovarian) was 2260 nM. The GI50 (OVCAR-3 ovarian) was 1760 nM, the TGI (OVCAR-3 ovarian) was 3360 nM and the GI50 (SNB-75 CNS) was 1330 nM. It also gave a TGI (SNB-75 CNS) of 2610 nM, a GI50 (SR leukemia) of 401 nM and a TGI (SR leukemia) of 1320 nM. For the same compound, the GI50 (T-47D breast) was 1640 nM, the TGI (T-47D breast) was 3070 nM and the GI50 (NCI-H522 lung) was 1470 nM. The TGI (NCI-H522 lung) was 2800 nM, the GI50 (HT29 colon) was 1330 nM and the TGI (HT29 colon) was 2630 nM. The GI50 (COLO 205 colon) was 1310 nM, the TGI (COLO 205 colon) was 2600 nM and the GI50 (LOX IMVI melanoma) was 1390 nM. It also gave a TGI (LOX IMVI melanoma) of 2700 nM, a GI50 (MALME-3M melanoma) of 1600 nM and a TGI (MALME-3M melanoma) of 2950 nM. The GI50 (HCT-15 colon) was 1060 nM, the TGI (HCT-15 colon) was 2300 nM and the GI50 (SF-539 CNS) was 1120 nM. For the same compound, the TGI (SF-539 CNS) was 2330 nM, the GI50 (NCI-H23 lung) was 1600 nM and the TGI (NCI-H23 lung) was 2960 nM. The GI50 (SN12C renal) was 1410 nM, the TGI (SN12C renal) was 2860 nM and the GI50 (A498 renal) was 880 nM. The TGI (A498 renal) was 2110 nM, the GI50 (HS 578T breast) was 1710 nM and the TGI (HS 578T breast) was 3080 nM. It also gave a GI50 (NCI-H322M lung) of 1290 nM, a TGI (NCI-H322M lung) of 2630 nM and a GI50 (HL-60(TB) leukemia) of 1640 nM. The TGI (HL-60(TB) leukemia) was 3000 nM, the GI50 (A549 NSCLC) was 1510 nM and the TGI (A549 NSCLC) was 2910 nM. It also gave a GI50 (UO-31 renal) of 1850 nM, a TGI (UO-31 renal) of 3730 nM and a GI50 (EKVX NSCLC) of 1330 nM. The TGI (EKVX NSCLC) was 2820 nM, the GI50 (NCI-H460 NSCLC) was 1100 nM and the TGI (NCI-H460 NSCLC) was 2310 nM. It also gave a GI50 (MDA-MB-468 breast) of 322 nM, a TGI (MDA-MB-468 breast) of 1230 nM and a GI50 (BT-549 breast) of 1500 nM. It also gave a TGI (BT-549 breast) of 2840 nM, a GI50 (SF-268 CNS) of 1640 nM and a TGI (SF-268 CNS) of 3060 nM. For the same compound, the GI50 (K-562 leukemia) was 1080 nM, the TGI (K-562 leukemia) was 2290 nM and the GI50 (SNB-19 CNS) was 1940 nM. It also gave a TGI (SNB-19 CNS) of 4030 nM, a GI50 (RXF 393 renal) of 668 nM and a TGI (RXF 393 renal) of 1980 nM.
